Laboratory results: US6734184B1, “Arylpiperazines and their use as metalloproteinase inhibiting agents (MMP)” (AstraZeneca AB, priority 1998, dated 2004)

| SMILES | melting point |
| --- | --- |
| O=CN(O)C(CCc1cccnc1)CS(=O)(=O)N1CCC(Oc2ccc(Cl)cn2)CC1 (stereo not drawn) [Example 14, N-{1-[({4-[(5-Chloropyridin-2-yl)oxy]piperidino}sulfonyl)methyl]-3-pyridin-3-ylpropyl}-N-hydroxyformamide] | 130 to 140 °C |
| O=CN(O)C(CCc1ccccc1)CS(=O)(=O)N1CCN(c2cc(Cl)ncn2)CC1 (stereo not drawn) [N-[1-({[4-(6-chloropyrimidin-4-yl)piperazino]sulphonyl}methyl)-3-phenylpropyl]-N-hydroxyformamide] | 155 to 157 °C |
| O=CN(O)C(COCc1ccccc1)CS(=O)(=O)N1CCN(c2cc(Cl)ncn2)CC1 (stereo not drawn) [N-[2-(benyloxy)-1-({[4(6-chloropyrimidin-4-yl)piperazino]sulphonyl}methyl)ethyl]-N-hydroxyformamide] | 118 to 120 °C |
